In patent publication US7582631B2, “Substituted heterocyclic compounds and methods of use” (Amgen Inc., priority 2004, dated 2009):
pIC50: −log10 of the molar value.

What was measured:
whole human blood = assay: Anti-CD3/anti-CD28-induced IL-2 Secretion in Whole Human Blood; assay type: cell-based; conditions: 48 h, IL-2 by ELISA, threshold 5 μM
Method: Anti-CD3/anti-CD28-induced IL-2Secretion in Whole Human Blood
The purpose of this assay is to test the potency of T cell receptor (TCR; CD3) and CD28 signaling pathway inhibitors in whole human blood. Anti-CD3 antibody (10 ug/mL; R&D Systems) is precoated on the wells of 96-well plates. Compounds are added in T-cell dilution media (Iscoves modified DMEM), supplemented with 0.1% human serum albumin, 5 uM Beta-mercaptoethanol, and 1×Pen/Strep/Glu. Compounds are tested in triplicate. 100 μL of whole human blood (collected in heparinized tubes) is added to each well and the plates are incubated for 30 minutes at 37° C., 5% CO2. Anti-CD28 antibody (2 ug/mL; R&D Systems) is diluted in T-cell dilution media and is added to the wells. The mixture is incubated for 48 h at 37° C., 5% CO2. The cells are then pelleted, and the supernatant collected and IL-2 production determined by ELISA (R&D Systems).

human T cells = assay: Anti-CD3/anti-CD28-induced T cell IL-2 Secretion and Proliferation Assay; assay type: cell-based; conditions: list printed after the T cell IL-2 secretion/proliferation method, threshold 500 μM

Compound	pIC50 (whole human blood)	pIC50 (human T cells)
CC(C)N1C[C@@H]2C[C@H]1CN2c1nc(-c2ccnc(N[C@@H](C)c3ccccc3)c2)cc2nccn12 [Example 4, (S)-{4-[5-(5-Isopropyl-(1S,4S)-2,5-diaza-bicyclo[2.2.1]hept-2-yl)-imidazo[1,2-c]pyrimidin-7-yl]-pyridin-2-yl}-(1-phenyl-ethyl)-amine]	> 5.30	> 3.30
CCN1C[C@@H]2C[C@H]1CN2c1nc(-c2ccnc(N[C@@H](C)c3ccccc3)c2)cc2nccn12 [Example 5, (S)-{4-[5-(5-Ethyl-(1S,4S)-2,5-diaza-bicyclo[2.2.1]hept-2-yl)-imidazo[1,2-c]pyrimidin-7-yl]-pyridin-2-yl}-(1-phenyl-ethyl)-amine]	> 5.30	
CC(C)N1CC2CC1CN2c1nc(-c2ccnc(N[C@@H](C)c3ccccc3)c2)nc2ccccc12 (stereo partly drawn) [(S)-{4-[4-(5-Isopropyl-(1S,4S)-2,5-diaza-bicyclo[2.2.1]hept-2-yl)-quinazolin-2-yl]-pyridin-2-yl}-(1-phenyl-ethyl)-amine]		> 3.30
C[C@H](Nc1cc(-c2cc(N3C[C@@H]4C[C@H]3CN4)c3ccccc3n2)ccn1)c1ccccc1 [Example 51, (S)-{4-[4-((1S,4S)-2,5-Diaza-bicyclo[2.2.1]hept-2-yl)-quinolin-2-yl]-pyridin-2-yl}-(1-phenyl-ethyl)-amine]		> 3.30
C[C@H](Nc1cc(-c2nc(N3CC4CC3CN4C)c3ccccc3n2)ccn1)c1ccccc1 (stereo partly drawn) [(S)-{4-[4-(5-Methyl-(1S,4S)-2,5-diaza-bicyclo[2.2.1]hept-2-yl)-quinazolin-2-yl]-pyridin-2-yl}-(1-phenyl-ethyl)-amine]		> 3.30
CCN1CC2CC1CN2c1nc(-c2ccnc(N[C@@H](C)c3ccccc3)c2)nc2ccccc12 (stereo partly drawn) [(S)-{4-[4-(5-Ethyl-(1S,4S)-2,5-diaza-bicyclo[2.2.1]hept-2-yl)-quinazolin-2-yl]-pyridin-2-yl}-(1-phenyl-ethyl)-amine]	> 5.30	
C[C@H](Nc1cc(-n2nc(N3C[C@@H]4C[C@H]3CN4)c3ccccc32)ccn1)c1ccccc1F [Example 24, (S)-{4-[3-((1S,4S)-2,5-Diaza-bicyclo[2.2.1]hept-2-yl)-indazol-1-yl]-pyridin-2-yl}-[1-(2-fluoro-phenyl)-ethyl]-amine]	> 5.30	
C[C@H](Nc1cc(-n2nc(N3C[C@@H]4C[C@H]3CN4)c3ccccc32)ccn1)c1ccccc1 [Example 43, (S)-{4-[3-((1s, 4S)-2,5-Diaza-bicyclo[2.2.1]hept-2-yl)-indazol-1-yl]-pyridin-2-yl}-(1-phenyl-ethyl)-amine]		> 3.30
C[C@H](Nc1cc(-c2cc3nccn3c(N3C[C@@H]4C[C@H]3CN4)n2)ccn1)c1ccccc1 [Example 3, (S)-{4-[5-((1S,4S)-2,5-Diaza-bicyclo[2.2.1]hept-2-yl)-imidazo[1,2-c]pyrimidin-7-yl]-pyridin-2-yl}-(1-phenyl-ethyl)-amine]	> 5.30	
CCN1C[C@@H]2C[C@H]1CN2c1nc(-c2ccnc(N[C@@H](C)c3ccccc3)c2)nc2ccccc12 [Example 64, (S)-{4-[4-(5-Ethyl-(1S,4S)-2,5-diaza-bicyclo[2.2.1]hept-2-yl)-quinazolin-2-yl]-pyridin-2-yl}-(1-phenyl-ethyl)-amine]		> 3.30
Fc1ccc2c(N3CC4CC3CN4)nn(-c3ccnc(NCc4ccccc4)c3)c2c1 [Benzyl-{4-[3-((1S,4S)-2,5-diaza-bicyclo[2.2.1]hept-2-yl)-6-fluoro-indazol-1-yl]-pyridin-2-yl}-amine]	> 5.30	> 3.30

Continued, in another order:

pIC50 (whole human blood)	Compound	pIC50 (human T cells)
> 5.30	CC(C)N1C[C@@H]2C[C@H]1CN2c1nccc(-c2ccnc(N[C@@H](C)c3ccccc3)c2)n1 [Example 66, (S)-{4-[2-(5-Isopropyl-(1S,4S)-2,5-diaza-bicyclo[2.2.1]hept-2-yl)-pyrimidin-4-yl]-pyridin-2-yl}-(1-phenyl-ethyl)-amine]	
> 5.30	CC(C)N1C[C@@H]2C[C@H]1CN2c1nn(-c2ccnc(N[C@@H](C)c3ccccc3)c2)c2ccccc12 [Example 44, (S)-{4-[3-(5-Isopropyl-(1S,4S)-2,5-diaza-bicyclo[2.2.1]hept-2-yl)-indazol-1-yl]-pyridin-2-yl}-(1-phenyl-ethyl)-amine]	> 3.30
> 5.30	Fc1ccccc1CNc1cc(-c2cc3nccn3c(N3C[C@@H]4C[C@H]3CN4)n2)ccn1 [Example 57, {4-[5-((1S,4S)-2,5-Diaza-bicyclo[2.2.1]hept-2-yl)-imidazo[1,2-c]pyrimidin-7-yl]-pyridin-2-yl}-(2-fluoro-benzyl)-amine]	> 3.30
> 5.30	c1ccc(CNc2cc(-n3nc(N4C[C@@H]5C[C@H]4CN5)c4ccccc43)ccn2)cc1 [Example 69]	> 3.30
> 5.30	CC(C)N1C[C@@H]2C[C@H]1CN2c1nc(-c2ccnc(N[C@@H](C)c3ccccc3)c2)nc2ccccc12 [Example 65, (S)-{4-[4-(5-Isopropyl-(1S,4S)-2,5-diaza-bicyclo[2.2.1]hept-2-yl)-quinazolin-2-yl]-pyridin-2-yl}-(1-phenyl-ethyl)-amine]	
> 5.30	CC(C)N1C[C@@H]2C[C@H]1CN2c1cc(-c2ccnc(N[C@@H](C)c3ccccc3)c2)nc2ccccc12 [Example 52, (S)-{4-[4-(5-Isopropyl-(1S,4S)-2,5-diaza-bicyclo[2.2.1]hept-2-yl)-quinolin-2-yl]-pyridin-2-yl}-(1-phenyl-ethyl)-amine]	> 3.30
> 5.30	C[C@H](Nc1cc(-c2nc(N3C[C@@H]4C[C@H]3CN4)c3ccccc3n2)ccn1)c1ccccc1 [Example 49, {4-[4-((1S,4S)-2,5-Diaza-bicyclo[2.2.1]hept-2-yl)-quinazolin-2-yl]-pyridin-2-yl}-(S)-(1-phenyl-ethyl)-amine]	> 3.30
